Results taken from patent US20250195521A1 (Revolution Medicines, Inc., priority 2020, published 2025).
“And” between values parts separate entries of the source, which are not always exact repeats. Equal values may be shown once. Read-outs that look alike come from different tables or passages of the source.

Key:
NRAS G12C = NRAS G12C (Homo sapiens (Human), UniProt P01111+P62937, G12C); test: Ras-Raf disruption/FRET/MOA assay (BRAF RBD, Cyclophilin A); type: biochemical; conditions: read-out: NRAS G12C FRET data IC50
NRAS G12C, sequence (P01111 whole entry G12C): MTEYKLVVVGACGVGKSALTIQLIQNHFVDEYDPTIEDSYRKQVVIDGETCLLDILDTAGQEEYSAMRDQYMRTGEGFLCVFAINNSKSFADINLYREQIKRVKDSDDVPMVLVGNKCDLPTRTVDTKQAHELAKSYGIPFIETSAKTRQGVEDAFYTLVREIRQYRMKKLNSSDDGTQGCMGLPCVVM
NRAS G12C, sequence (P62937 whole entry): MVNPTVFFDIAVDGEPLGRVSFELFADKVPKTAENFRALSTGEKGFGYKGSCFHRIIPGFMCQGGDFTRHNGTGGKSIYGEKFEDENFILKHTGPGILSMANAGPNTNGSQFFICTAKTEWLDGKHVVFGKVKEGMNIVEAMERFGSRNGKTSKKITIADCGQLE
Summary of the method: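 TR-FRET readout: anti-His Eu-W1024 (10 nM) and anti-GST allophycocyanin (50 nM) added after 3 h, 25° C compound incubation, then 1.5 h more. Decrease in FRET ratio versus DMSO wells marks Ras:RAF disruption; IC50 reported.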

KRAS G12V = KRAS G12V (Homo sapiens (Human), UniProt P01116+P62937, G12V); test: as above; type: biochemical; conditions: read-out: KRAS G12V FRET IC50
KRAS G12V, sequence (P01116 other isoform, or with tags, fused parts or gaps G12V): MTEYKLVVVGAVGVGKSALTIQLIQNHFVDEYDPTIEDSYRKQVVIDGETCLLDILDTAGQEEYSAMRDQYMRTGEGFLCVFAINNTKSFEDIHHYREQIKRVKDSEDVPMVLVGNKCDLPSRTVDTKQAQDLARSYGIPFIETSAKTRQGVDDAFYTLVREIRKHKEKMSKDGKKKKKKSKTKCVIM
KRAS G12V, sequence (P62937 whole entry): as the sequence (P62937 whole entry) above
Summary of the method: (§1)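 TR-FRET read after 1.5 h with 10 nM anti-His Eu-W1024 and 50 nM anti-GST APC, following 3 h at 25 °C of GMPPNP-loaded His6-Ras (12.5 nM), GST-BRAF RBD (50 nM) and Cyclophilin A (25 μM) with compound from 30 μM final, 10 points, 3-fold. IC50 reported; pH 7.3 HEPES, 100 mM NaCl.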

KRAS WT = KRAS WT (Homo sapiens (Human), UniProt P01116+P62937); test: as above; type: biochemical; conditions: read-out: KRAS WT FRET data IC50
KRAS WT, sequence (P01116 other isoform, or with tags, fused parts or gaps): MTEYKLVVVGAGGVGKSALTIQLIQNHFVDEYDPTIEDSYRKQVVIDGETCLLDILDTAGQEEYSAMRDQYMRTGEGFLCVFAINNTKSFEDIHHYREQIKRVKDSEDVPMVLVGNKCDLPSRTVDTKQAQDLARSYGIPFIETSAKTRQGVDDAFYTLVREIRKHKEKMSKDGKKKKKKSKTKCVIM
KRAS WT, sequence (P62937 whole entry): as the sequence (P62937 whole entry) above
Summary of the method: as §1

KRAS G12S = KRAS G12S (Homo sapiens (Human), UniProt P01116+P62937, G12S); test: as above; type: biochemical; conditions: read-out: KRAS G12S FRET IC50
KRAS G12S, sequence (P01116 other isoform, or with tags, fused parts or gaps G12S): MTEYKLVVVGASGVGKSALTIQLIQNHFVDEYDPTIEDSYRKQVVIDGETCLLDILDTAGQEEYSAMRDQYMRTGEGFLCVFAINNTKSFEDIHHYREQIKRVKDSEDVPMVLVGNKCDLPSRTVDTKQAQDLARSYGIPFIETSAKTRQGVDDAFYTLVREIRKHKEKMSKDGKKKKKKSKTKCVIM
KRAS G12S, sequence (P62937 whole entry): as the sequence (P62937 whole entry) above
Summary of the method: as §1

KRAS G13D = KRAS G13D (Homo sapiens (Human), UniProt P01116+P62937, G13D); test: as above; type: biochemical; conditions: read-out: KRAS G13D FRET data IC50
KRAS G13D, sequence (P01116 other isoform, or with tags, fused parts or gaps G13D): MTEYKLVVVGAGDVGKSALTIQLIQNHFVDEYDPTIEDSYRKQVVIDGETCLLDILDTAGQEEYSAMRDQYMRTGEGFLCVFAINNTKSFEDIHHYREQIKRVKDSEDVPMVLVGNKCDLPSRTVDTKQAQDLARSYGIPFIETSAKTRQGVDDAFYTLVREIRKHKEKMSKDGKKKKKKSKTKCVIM
KRAS G13D, sequence (P62937 whole entry): as the sequence (P62937 whole entry) above
Summary of the method: as §1

KRAS G12C = KRAS G12C (Homo sapiens (Human), UniProt P01116+P62937, G12C); test: as above; type: biochemical; conditions: read-out: KRAS G12C FRET IC50
KRAS G12C, sequence (P01116-2 other isoform, or with tags, fused parts or gaps G12C): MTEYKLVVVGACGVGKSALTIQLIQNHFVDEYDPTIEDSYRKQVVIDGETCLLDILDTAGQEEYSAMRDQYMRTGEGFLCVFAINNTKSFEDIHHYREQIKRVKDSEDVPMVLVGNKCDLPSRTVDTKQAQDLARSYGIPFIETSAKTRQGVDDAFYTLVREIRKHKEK
KRAS G12C, sequence (P62937 whole entry): as the sequence (P62937 whole entry) above
Summary of the method: as §1

KRAS G13C = KRAS G13C (Homo sapiens (Human), UniProt P01116+P62937, G13C); test: as above; type: biochemical; conditions: read-out: KRAS G13C FRET IC50
KRAS G13C, sequence (P01116 other isoform, or with tags, fused parts or gaps G13C): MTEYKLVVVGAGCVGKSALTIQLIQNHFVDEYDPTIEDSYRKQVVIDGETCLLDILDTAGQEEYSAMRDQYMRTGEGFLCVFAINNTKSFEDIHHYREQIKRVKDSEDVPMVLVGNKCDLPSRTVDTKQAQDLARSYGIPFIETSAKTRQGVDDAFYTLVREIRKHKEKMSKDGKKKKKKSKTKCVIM
KRAS G13C, sequence (P62937 whole entry): as the sequence (P62937 whole entry) above
Summary of the method: as §1

KRAS G12D = KRAS G12D (Homo sapiens (Human), UniProt P01116+P62937, G12D); test: as above; type: biochemical; conditions: read-out: KRAS G12D FRET IC50
KRAS G12D, sequence (P01116 other isoform, or with tags, fused parts or gaps G12D): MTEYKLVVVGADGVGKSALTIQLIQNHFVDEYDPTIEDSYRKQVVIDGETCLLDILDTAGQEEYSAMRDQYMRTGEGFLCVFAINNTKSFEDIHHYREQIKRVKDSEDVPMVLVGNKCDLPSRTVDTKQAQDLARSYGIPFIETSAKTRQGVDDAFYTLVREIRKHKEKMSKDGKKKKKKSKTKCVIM
KRAS G12D, sequence (P62937 whole entry): as the sequence (P62937 whole entry) above
Summary of the method: as §1

[1] = tested on: Capan-1 cells (K-Ras G12V); test: CellTiter-Glo cell viability, Capan-1; type: cell-based, human; conditions: Homo sapiens, CAPAN-1, 120 h, K-Ras G12V, 5-day treatment; read-out: Capan-1 Cell Viability IC50
Summary of the method: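 Compounds dispensed directly onto seeded cells; on day 5 plates equilibrated ~30 min to room temperature and luminescence read. Signal normalized to DMSO average (%) and fitted by four-parameter logistic.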

[2] = molecular target: K-Ras G12C(GMP-PNP) binding to BRAF RBD (Homo sapiens (Human), UniProt P01116+P62937, G12C); test: Disruption of BRAF RBD interaction with K-Ras (FRET / MOA assay), K-Ras G12C; type: biochemical; conditions: read-out: KRAS G12C FRET IC50
K-Ras G12C(GMP-PNP) binding to BRAF RBD, sequence (P01116 other isoform, or with tags, fused parts or gaps G12C): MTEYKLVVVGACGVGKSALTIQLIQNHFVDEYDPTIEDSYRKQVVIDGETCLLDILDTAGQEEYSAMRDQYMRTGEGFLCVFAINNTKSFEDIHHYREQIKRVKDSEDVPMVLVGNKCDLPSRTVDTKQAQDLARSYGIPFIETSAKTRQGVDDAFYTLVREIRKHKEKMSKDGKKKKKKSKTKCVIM
K-Ras G12C(GMP-PNP) binding to BRAF RBD, sequence (P62937 whole entry): as the sequence (P62937 whole entry) above
Summary of the method: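 Cpd 10-pt 3-fold dilution, top 30 μM final; Ras/CypA/BRAF RBD mix 3 h, 25° C. Add anti-His Eu-W1024 10 nM + anti-GST APC 50 nM final, 1.5 h. Readout TR-FRET ratio decrease vs DMSO → IC50.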

NCI-H358 (K-Ras G12C) = test: CellTiter-Glo cell viability assay, NCI-H358; type: cell-based, human; conditions: 5-day treatment, read-out: H358 Cell Viability assay data (K-Ras G12C, IC50)
Summary of the method: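 NCI-H358 (K-Ras G12C) cells treated with compound dispensed directly into plates. CellTiter-Glo luminescence read on day 5 after ~30 min equilibration to room temperature. Signal normalised to DMSO average ×100, then fitted with a four-parameter logistic model.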

In the case of CCn1c(-c2cccnc2[C@H](C)OC)c2c3cc(ccc31)-c1cccc(c1)C[C@H](NC(=O)[C@H](C(C)C)N(C)C(=O)[C@H]1CCNC1)C(=O)N1CCC[C@H](N1)C(=O)OCC(C)(C)C2 [Compound A119], the IC50 (NRAS G12C) is reported as 1 to 10 µM, the IC50 (KRAS G12V) is reported as > 10 µM and the IC50 (KRAS WT) is reported as 1 to 10 µM. For the same compound, the IC50 (KRAS G12S) was 0.1 to 1 µM, the IC50 (KRAS G13D) was 0.1 to 1 µM and the IC50 (KRAS G12C) was 1 to 10 µM. For the same compound, the IC50 (KRAS G13C) was 0.1 to 1 µM, the IC50 (KRAS G12D) was 1 to 10 µM and the IC50 [1] was > 10 µM. The IC50 [2] was 0.1 to 1 µM.

Work on CCn1c(-c2cccnc2[C@H](C)OC)c2c3cc(ccc31)-c1cc(O)cc(c1)C[C@H](NC(=O)C(=C(C)C)N(C)C(C)=O)C(=O)N1CCC[C@H](N1)C(=O)OCC(C)(C)C2 [Compound A142] yielded an IC50 (NRAS G12C) of 1 to 10 µM, an IC50 (KRAS G12V) of 1 to 10 µM and an IC50 (KRAS WT) of 1 to 10 µM. It also gave an IC50 (KRAS G12S) of 1 to 10 µM, an IC50 (KRAS G13D) of 1 to 10 µM and an IC50 (KRAS G12C) of 1 to 10 µM. The IC50 (KRAS G13C) was 0.1 to 1 µM, the IC50 (KRAS G12D) was > 10 µM and the IC50 (NCI-H358 (K-Ras G12C); Homo sapiens, NCI-H358, 120 h) was 0.1 to 1 µM. For the same compound, the IC50 [1] was > 10 µM and the IC50 [2] was 0.01 to 0.1 µM.

For CCn1c(-c2cccnc2[C@H](C)OC)c2c3cc(ccc31)-c1cc(cc3nc[nH]c13)C[C@H](NC(=O)[C@H](C(C)C)N(C)C(C)=O)C(=O)N1CCC[C@H](N1)C(=O)OCC(C)(C)C2 [Compound A153], the IC50 (NRAS G12C) was > 10 µM, the IC50 (KRAS G12V) was > 10 µM and the IC50 (KRAS WT) was > 10 µM. The IC50 (KRAS G12S) was > 10 µM, the IC50 (KRAS G13D) was > 10 µM and the IC50 (KRAS G13C) was > 10 µM. For the same compound, the IC50 (KRAS G12D) was > 10 µM, the IC50 (NCI-H358 (K-Ras G12C); Homo sapiens, NCI-H358, 120 h) was 0.1 to 1 µM and the IC50 [1] was > 10 µM. For the same compound, the IC50 [2] was 0.01 to 0.1 µM.

In the case of CCn1c(-c2cccnc2[C@H](C)OC)c2c3cc(ccc31)-c1cc(cc(S(C)(=O)=O)c1)C[C@H](NC(=O)[C@H](C(C)C)N(C)C(C)=O)C(=O)N1CCC[C@H](N1)C(=O)OCC(C)(C)C2 [Compound A154], the IC50 (NRAS G12C) is reported as > 10 µM, the IC50 (KRAS G12V) is reported as > 10 µM and the IC50 (KRAS WT) is reported as > 10 µM. For the same compound, the IC50 (KRAS G12S) was > 10 µM, the IC50 (KRAS G13D) was > 10 µM and the IC50 (KRAS G13C) was > 10 µM. The IC50 (KRAS G12D) was > 10 µM, the IC50 (NCI-H358 (K-Ras G12C); Homo sapiens, NCI-H358, 120 h) was 0.01 to 0.1 µM and the IC50 [1] was > 10 µM. It also gave an IC50 [2] of 0.01 to 0.1 µM.

With CCn1c(-c2cccnc2[C@H](C)OC)c2c3cc(ccc31)-c1cc(O)cc(c1)C[C@H](NC(=O)[C@H](C(C)C)N(C)C(=O)[C@H]1CCN(C3CC3)C1)C(=O)N1CCC[C@H](N1)C(=O)OCC(C)(C)C2 [Compound A175] the IC50 (NRAS G12C) was 1 to 10 µM, the IC50 (KRAS G12V) was > 10 µM and the IC50 (KRAS WT) was 1 to 10 µM. The IC50 (KRAS G12S) was 1 to 10 µM, the IC50 (KRAS G13D) was 1 to 10 µM and the IC50 (KRAS G12C) was 1 to 10 µM. The IC50 (KRAS G13C) was 0.1 to 1 µM, the IC50 (KRAS G12D) was 1 to 10 µM and the IC50 (NCI-H358 (K-Ras G12C); Homo sapiens, NCI-H358, 120 h) was < 0.01 µM. The IC50 [1] was 1 to 10 µM and the IC50 [2] was < 0.01 µM.

In the case of CCn1c(-c2cccnc2[C@H](C)OC)c2c3cc(ccc31)-c1cc(O)cc(c1)C[C@H](NC(=O)C1CCC3C1C3(F)F)C(=O)N1CCC[C@H](N1)C(=O)OCC(C)(C)C2 (stereo partly drawn) [Compound A181], the IC50 (NRAS G12C) is reported as 1 to 10 µM, the IC50 (KRAS G12V) is reported as 1 to 10 µM and the IC50 (KRAS WT) is reported as 1 to 10 µM. For the same compound, the IC50 (KRAS G12S) was 1 to 10 µM, the IC50 (KRAS G13D) was 1 to 10 µM and the IC50 (KRAS G12C) was 1 to 10 µM. For the same compound, the IC50 (KRAS G13C) was 0.1 to 1 µM, the IC50 (KRAS G12D) was > 10 µM and the IC50 (NCI-H358 (K-Ras G12C)) was 0.01 to 0.1 µM. For the same compound, the IC50 (NCI-H358 (K-Ras G12C); Homo sapiens, NCI-H358, 120 h) was < 0.01 µM, the IC50 [1] was > 10 µM and the IC50 [2] was 0.01 to 0.1 µM and 0.1 to 1 µM.

Work on CCn1c(-c2cccnc2[C@H](C)OC)c2c3cc(ccc31)-c1cc(O)cc(c1)C[C@H](NC(=O)[C@@H]1[C@H]3C[C@H]3CN1C(C)=O)C(=O)N1CCC[C@H](N1)C(=O)OCC(C)(C)C2 [Compound A207] yielded an IC50 (NRAS G12C) of 1 to 10 µM, an IC50 (KRAS G12V) of 1 to 10 µM and an IC50 (KRAS WT) of 1 to 10 µM. For the same compound, the IC50 (KRAS G12S) was 1 to 10 µM, the IC50 (KRAS G13D) was 1 to 10 µM and the IC50 (KRAS G12C) was 0.1 to 1 µM. For the same compound, the IC50 (KRAS G13C) was 0.1 to 1 µM, the IC50 (KRAS G12D) was > 10 µM and the IC50 (NCI-H358 (K-Ras G12C); Homo sapiens, NCI-H358, 120 h) was 0.01 to 0.1 µM. For the same compound, the IC50 [1] was > 10 µM and the IC50 [2] was 0.01 to 0.1 µM.
